Source: US20200267980A1, “Herbicidally Active Pyridyl-/Pyrimidyl-Pyrimidine Derivatives” (Syngenta Participations AG, priority 2017, published 2020)

Key:
Assay type in all cases: in vivo
[1] = system: Triticum aestivium (TRZAW); test: Post-emergence herbicidal activity, glasshouse pot test; parameters: key: 5=total damage to plant; 0=no damage to plant; details: 1000 g/ha, post-emergence spray after 8 days cultivation, evaluated after 13 days, damage score 0-5
Description: (§1) Seeds of a variety of test species were sown in standard soil in pots: Triticum aestivium (TRZAW), Avena fatua (AVEFA), Alopecurus myosuroides (ALOMY), Echinochloa crus-galli (ECHCG), Lolium perenne (LOLPE), and Setaria faberi (SETFA). After 8 days cultivation (post-emergence) under controlled conditions in a glasshouse (at 24/16° C., day/night; 14 hours light; 65% humidity), the plants were sprayed with an aqueous spray solution derived from the formulation of the technical active ingredient in acetone/water (50:50) solution containing 0.5% Tween 20 (polyoxyethelyene sorbitan monolaurate, CAS RN 9005-64-5). The test plants were then grown in a glasshouse under controlled conditions (at 24/16° C., day/night; 14 hours light; 65% humidity) and watered twice daily. After 13 days, the test was evaluated (5=total damage to plant; 0=no damage to plant).

[2] = system: Echinochloa crus-galli (ECHCG); test: as above; parameters: key: 5=total damage to plant; 0=no damage to plant; details: 1000 g/ha, post-emergence spray after 8 days cultivation, evaluated after 13 days, damage score 0-5
Description: as §1

Setaria faberi (SETFA) [3] = test: as above; parameters: key: 5=total damage to plant; 0=no damage to plant; details: 1000 g/ha, post-emergence spray after 8 days cultivation, evaluated after 13 days, damage score 0-5
Description: as §1

Lolium perenne (LOLPE) [4] = test: as above; parameters: key: 5=total damage to plant; 0=no damage to plant; details: 1000 g/ha, post-emergence spray after 8 days cultivation, evaluated after 13 days, damage score 0-5
Description: as §1

[5] = system: Alopecurus myosuroides (ALOMY); test: as above; parameters: key: 5=total damage to plant; 0=no damage to plant; details: 1000 g/ha, post-emergence spray after 8 days cultivation, evaluated after 13 days, damage score 0-5
Description: as §1

[6] = system: Triticum aestivium (TRZAW); test: Pre-emergence herbicidal activity, glasshouse pot test; parameters: key: 5=total damage to plant; 0=no damage to plant; details: 1000 g/ha, pre-emergence spray, evaluated after 13 days, damage score 0-5
Description: as §1, with “After” for “After 8 days”, “for one day (pre-emergence)” for “(post-emergence)”

Avena fatua (AVEFA) [7] = test: as above; parameters: key: 5=total damage to plant; 0=no damage to plant; details: 1000 g/ha, pre-emergence spray, evaluated after 13 days, damage score 0-5
Description: as §1, with “After” for “After 8 days”, “for one day (pre-emergence)” for “(post-emergence)”

[8] = system: Echinochloa crus-galli (ECHCG); test: as above; parameters: key: 5=total damage to plant; 0=no damage to plant; details: 1000 g/ha, pre-emergence spray, evaluated after 13 days, damage score 0-5
Description: as §1, with “After” for “After 8 days”, “for one day (pre-emergence)” for “(post-emergence)”

Setaria faberi (SETFA) [9] = test: as above; parameters: key: 5=total damage to plant; 0=no damage to plant; details: 1000 g/ha, pre-emergence spray, evaluated after 13 days, damage score 0-5
Description: as §1, with “After” for “After 8 days”, “for one day (pre-emergence)” for “(post-emergence)”

Lolium perenne (LOLPE) [10] = test: as above; parameters: key: 5=total damage to plant; 0=no damage to plant; details: 1000 g/ha, pre-emergence spray, evaluated after 13 days, damage score 0-5
Description: as §1, with “After” for “After 8 days”, “for one day (pre-emergence)” for “(post-emergence)”

[11] = system: Alopecurus myosuroides (ALOMY); test: as above; parameters: key: 5=total damage to plant; 0=no damage to plant; details: 1000 g/ha, pre-emergence spray, evaluated after 13 days, damage score 0-5
Description: as §1, with “After” for “After 8 days”, “for one day (pre-emergence)” for “(post-emergence)”

Avena fatua (AVEFA) [12] = test: Post-emergence herbicidal activity, glasshouse pot test; details: 1000 g/ha, post-emergence spray after 8 days cultivation, evaluated after 13 days, damage score 0-5
Description: as §1

Row | Structure (SMILES) | Control of weed species after post-emergence application, TRAZW [1] | Control of weed species after post-emergence application, ECHCG [2] | Control of weed species after post-emergence application, SETFA (Setaria faberi (SETFA) [3]) | Control of weed species after post-emergence application, LOLPE (Lolium perenne (LOLPE) [4]) | Control of weed species after post-emergence application, ALOMY [5] | Control of weed species after pre-emergence application, TRAZW [6] | Control of weed species after pre-emergence application, AVEFA (Avena fatua (AVEFA) [7]) | Control of weed species after pre-emergence application, ECHCG [8] | Control of weed species after pre-emergence application, SETFA (Setaria faberi (SETFA) [9]) | Control of weed species after pre-emergence application, LOLPE (Lolium perenne (LOLPE) [10]) | Control of weed species after pre-emergence application, ALOMY [11] | Control of weed species after post-emergence application, AVEFA (Avena fatua (AVEFA) [12])
1 | CC(C)C(=O)N(C)c1cnc(-c2cncc(F)c2)nc1C(F)(F)F [Compound F20, N-[2-(5-fluoro-3-pyridyl)-4-(trifluoromethyl)pyrimidin-5-yl]-N,2-dimethyl-propanamide] | 2 | 5 | 5 | 3 | 1 | 1 | 3 | 4 | 5 | 1 | 0 | 4
2 | O=C(Nc1cnc(-c2cncc(F)c2)nc1C(F)(F)F)c1ccccc1 [Compound F10] | 1 | 5 | 5 | 1 | 0 | 0 | 1 | 4 | 4 | 1 | 0 | 2
3 | O=C(C1CC1)N(C(=O)C1CC1)c1cnc(-c2cncc(F)c2)nc1C(F)(F)F [Compound F21] | 1 | 3 | 5 | 2 | 1 | 0 | 0 | 1 | 4 | 0 | 0 | 3
4 | O=C(Nc1cnc(-c2cncc(F)c2)nc1C(F)(F)F)C(Cl)Cl [Compound F8] | 1 | 4 | 5 | 2 | 1 | 1 | 1 | 4 | 4 | 1 | 0 | 2
5 | O=C(COc1ccccc1)Nc1cnc(-c2cncc(F)c2)nc1C(F)(F)F [Compound F18] | 1 | 4 | 4 | 1 | 0 | 0 | 1 | 3 | 4 | 0 | 0 | 3
6 | CC(C)=CC(=O)Nc1cnc(-c2cncc(F)c2)nc1C(F)(F)F [Compound F24] | 1 | 5 | 4 | 1 | 1 | 1 | 1 | 2 | 5 | 1 | 0 | 3
7 | O=C(CCC1CCCC1)Nc1cnc(-c2cncnc2)nc1C(F)(F)F [Compound F17] | 1 | 4 | 4 | 1 | 0 | 0 | 1 | 3 | 4 | 0 | 0 | 2
8 | O=C(Nc1cnc(-c2cncc(F)c2)nc1C(F)(F)F)c1cccs1 [Compound F9] | 1 | 4 | 4 | 2 | 0 | 0 | 1 | 2 | 4 | 1 | 0 | 2
9 | Cc1nc(-c2cncnc2)ncc1N(C(=O)C(C)C)C(=O)C(C)C [Compound F2, 2-methyl-N-(2-methylpropanoyl)-N-(4-methyl-2-pyrimidin-5-yl-pyrimidin-5-yl)propanamide] | 0 | 5 |  | 1 | 0 | 0 | 2 | 4 | 5 | 0 | 0 | 3
10 | COCCC(=O)Nc1cnc(-c2cncnc2)nc1C(F)(F)F [Compound F16] | 1 | 5 | 5 | 2 | 1 | 0 | 1 | 4 | 5 | 1 | 0 | 3
11 | O=C(Nc1cnc(-c2cncc(F)c2)nc1C(F)(F)F)C1CCCCC1 [Compound F27] | 0 | 3 | 2 | 0 | 0 | 0 | 0 | 0 | 0 | 0 | 0 | 1
